Data set [1] can be described thus: Acute toxicity in male and female Wistar rats. Conditions: in vivo; oral; male rat; observed 7 days. As for the experimental part: 2-(4-Benzhydryl-1-piperazinyl)ethyl methyl 2,6-dimethyl-4-(3-nitrophenyl)-1,4-dihydropyridine-3,5-dicarboxylate dihydrochloride was suspended in a 5% solution of gum arabic and orally administered to male and female Wistar rats aged 5 weeks (body weight 105 to 139 g) in a dose of 62.5, 125, 250, 500 and 1000 mg/kg (in groups of 4 to 8) and each animal so treated was observed over a period of 7 days.

The test system of data set [2] is spontaneously hypertensive rats. The data set can be described thus: Antihypertensive action (systolic blood pressure, caudal artery) in male spontaneously hypertensive rats. It counts as in vivo, rat. Conditions: 10 mg/kg oral; for Change in blood pressure 1 hr. after treatment / Change in blood pressure 5 hrs. after treatment: after minus before medication, * P < 0.05 vs control; for Duration of antihypertensive effect: measured 1, 5, 8 and 24 hours after administration. How it is done:
Male spontaneously hypertensive rats aged 10 to 11 weeks were used (in groups of 3 to 6 individuals). […] Each test compound was suspended in a 5% solution of gum arabic and orally administered. The dosage was 10 mg/kg for all compounds. Animals in a control group was given the above solution of gum arabic only.

Data set [3] shares this test system. Description: Renal blood flow increasing effect (renal circulation improving effect) in anesthetized male spontaneously hypertensive rats. The conditions noted are these: Rattus norvegicus. It counts as in vivo. As for the experimental part:
Male spontaneously hypertensive rats aged 10 to 11 weeks (3 to 6 animals per group) were anesthetized with pentobarbital and used. After laparotomy, an electromagnetic flowmeter probe (Narco) was fitted to the left renal artery and the renal blood flow was continuously recorded on a polygraph (Sanei Sokki K.K.). […] Each test compound was dissolved in polyethylene glycol 400 to prepare a stock solution. This stock solution was diluted five-fold with physiological saline and the dilution was intravenously administered to rats in a volume of 0.5 ml/kg body weight. The dosage was 0.01 mg/kg for all test compounds. The renal blood flow was measured over a period of 40 minutes following the medication. The values shown are: [formula]

[4] abbreviates: 1 min, 0.01 mg/kg intravenous, 1 minute, * P < 0.05 vs control, read-out: Change in renal blood flow, 1 Minute after medication.
Where [5] appears, read: 20 min, 0.01 mg/kg intravenous, 20 minutes, * P < 0.05 vs control, read-out: Change in renal blood flow, 20 Minutes after medication.
The mark [6] stands for this setting: 40 min, 0.01 mg/kg intravenous, 40 minutes, * P < 0.05 vs control, read-out: Change in renal blood flow, 40 Minutes after medication.

Structures can show the parent of a compound that is named as a salt. Where two headings read alike, the source gives them in different places.

In the case of `COC(=O)C1=C(C)NC(C)=C(C(=O)OCCN2CCN(C(c3ccccc3)c3ccccc3)CC2)C1c1cccc([N+](=O)[O-])c1.Cl.Cl` (stereo not shown) [2-(4-Benzhydryl-1-piperazinyl)ethyl methyl 2,6-dimethyl-4-(3-nitrophenyl)-1,4-dihydropyridine-3,5-dicarboxylate dihydrochloride], in data set [1], the LD50 – broadly, the dose expected to kill half of the subjects tested – at 168 h is 250 to 500 mg/kg.
Turning to `COC(=O)C1=C(C)NC(C)=C(C(=O)OCCN2CCN(c3cccc(C(F)(F)F)c3)CC2)C1c1cccc([N+](=O)[O-])c1` (stereo not shown) [Example 18, methyl 2-[4-(3-trifluoromethylphenyl)-1-piperazinyl]ethyl 2,6-dimethyl-4-(3-nitrophenyl)-1,4-dihydropyridine-3,5-dicarboxylate], in data set [2], the “Change in blood pressure 1 hr. after treatment” value is on record as -68 mmHg, the “Change in blood pressure 5 hrs. after treatment” value is -43 mmHg and the “Duration of antihypertensive effect” value fell in the range of 8 to 24 h. For the same molecule, the change in vivo at 0.01 mg/kg in data set [3] (setting [4]) was 8.8%. For the same molecule, in data set [3] (setting [5]), the change in vivo at 0.01 mg/kg worked out at 4.2%. In data set [3] (setting [6]), the change in vivo at 0.01 mg/kg amounted to 5%.
For `COC(=O)C1=C(C)NC(C)=C(C(=O)OCCN2CCN(C(c3ccccc3)c3ccccc3)CC2)C1c1cccc(Cl)c1` (stereo not shown) [Example 22, 2-(4-benzhydryl-1-piperazinyl)ethyl methyl 4-(3-chlorophenyl)-2,6-dimethyl-1,4-dihydropyridine-3,5-dicarboxylate], in data set [2], the “Change in blood pressure 1 hr. after treatment” value is -97 mmHg, the “Change in blood pressure 5 hrs. after treatment” value is -83 mmHg and the “Duration of antihypertensive effect” value was 8 to 24 h. Also, the change in vivo at 0.01 mg/kg in data set [3] (setting [4]) stood at 7.5%. The change in vivo at 0.01 mg/kg in data set [3] (setting [5]) worked out at 7.8%. Also, the change in vivo at 0.01 mg/kg in data set [3] (setting [6]) amounted to 9.6%.
Consider `COC(=O)C1=C(C)NC(C)=C(C(=O)OCCN2CCN(C(c3ccccc3)c3ccccc3)CC2)C1c1cccc(C(F)(F)F)c1` (stereo not shown) [Example 23, 2-(4-benzhydryl-1-piperazinyl)ethyl methyl 2,6-dimethyl-4-(3-trifluoromethylphenyl)-1,4-dihydropyridine-3,5-dicarboxylate], for which, in data set [2], the “Change in blood pressure 1 hr. after treatment” value is -59 mmHg, the “Change in blood pressure 5 hrs. after treatment” value was -66 mmHg and the “Duration of antihypertensive effect” value was 8 to 24 h. For the same molecule, the change in vivo at 0.01 mg/kg in data set [3] (setting [4]) came out at 6.7%. Also, in data set [3] (setting [5]), the change in vivo at 0.01 mg/kg is 9.7%. In addition, in data set [3] (setting [6]), the change in vivo at 0.01 mg/kg was found to be 10.9%.
Regarding `CCOC(=O)C1=C(C)NC(C)=C(C(=O)OCCN2CCN(C(c3ccc(C)cc3)c3ccc(C)cc3)CC2)C1c1cccc([N+](=O)[O-])c1` (stereo not shown) [Example 31, 2-[4-(4,4'-dimethylbenzhydryl)-1-piperazinyl]ethyl ethyl 2,6-dimethyl-4-(3-nitrophenyl)-1,4-dihydropyridine-3,5-dicarboxylate], in data set [2], the “Change in blood pressure 1 hr. after treatment” value is recorded as -77 mmHg. The “Change in blood pressure 5 hrs. after treatment” value in data set [2] is on record as -77 mmHg. Also, in data set [2], the “Duration of antihypertensive effect” value fell in the range of 8 to 24 h. Also, the change in vivo at 0.01 mg/kg was found to be 3.3% in data set [3] (setting [4]), 4.3% in data set [3] (setting [5]) and 1.8% in data set [3] (setting [6]).
As for `COC(=O)C1=C(C)NC(C)=C(C(=O)OCCCN2CCN(C(c3ccccc3)c3ccccc3)CC2)C1c1cccc([N+](=O)[O-])c1` (stereo not shown) [Example 37, 3-(4-benzhydryl-1-piperazinyl)propyl methyl 2,6-dimethyl-4-(3-nitrophenyl)-1,4-dihydropyridine-3,5-dicarboxylate], in data set [2], the “Change in blood pressure 1 hr. after treatment” value is -63 mmHg, the “Change in blood pressure 5 hrs. after treatment” value is on record as -30 mmHg and the “Duration of antihypertensive effect” value is “ca. 8 hrs”. The change in vivo at 0.01 mg/kg in data set [3] (setting [4]) came to 8.5%. The change in vivo at 0.01 mg/kg in data set [3] (setting [5]) was found to be 10.8%. Also, in data set [3] (setting [6]), the change in vivo at 0.01 mg/kg was found to be 11.3%.
With `COC(=O)C1=C(C)NC(C)=C(C(=O)OCCN(C)Cc2ccccc2)C1c1cccc([N+](=O)[O-])c1` (stereo not shown) [Nicardipine.HCl, reference compound], in data set [2], the “Change in blood pressure 1 hr. after treatment” value was -38 mmHg, the “Change in blood pressure 5 hrs. after treatment” value was “+2 mmHg” and the “Duration of antihypertensive effect” value is less than 5 h. Also, the change in vivo at 0.01 mg/kg in data set [3] (setting [4]) was -15%. Besides, the change in vivo at 0.01 mg/kg in data set [3] (setting [5]) is -1.9%. The change in vivo at 0.01 mg/kg in data set [3] (setting [6]) turned out to be 0.3%.
In the case of `COC(=O)C1=C(C)NC(C)=C(C(=O)OC)C1c1ccccc1[N+](=O)[O-]` [Nifedipine, reference compound], the “Change in blood pressure 1 hr. after treatment” value in data set [2] is on record as -45 mmHg. In addition, the “Change in blood pressure 5 hrs. after treatment” value in data set [2] is given as -3 mmHg. In data set [2], the “Duration of antihypertensive effect” value was less than 5 h. Also, the change in vivo at 0.01 mg/kg in data set [3] (iv, 1 min, read-out: Change in renal blood flow, 1 Minute after medication) came to 3%; in data set [3] (iv, 20 min, read-out: Change in renal blood flow, 20 Minutes after medication), 3.1%; in data set [3] (iv, 40 min, read-out: Change in renal blood flow, 40 Minutes after medication), 2.2%.
